The values that follow come from article PMC4409337, “Immucillins Impair Leishmania (L.) infantum chagasi and Leishmania (L.) amazonensis Multiplication In Vitro” (PLoS ONE, 2015).

pEC50, pIC50: −log10 of the molar value. Where two headings read alike, the source gives them in different places.

For assay [1], the system named is intracellular amastigotes of L. (L.) infantum chagasi. Kind of assay: Replication of intracellular amastigotes in infected peritoneal macrophages (phagocytic index). The assay is classed as cell-based, Leishmania (L.) infantum chagasi. On the procedure:
[…] […] The amastigote growth was assessed 24 h after the last drug addition, on 200 cells in Giemsa stained coverslips and expressed as phagocytic index = percent of infected macrophages x average number of intracellular amastigotes. […] All experiments with mice were reviewed and approved by the Animal Care and Use Committee of the Instituto de Biofísica Carlos Chagas Fo.-UFRJ (CAUAP-CONCEA, Brazil, IMPPG-016) and were performed according to the guidelines of the National Institutes of Health, USA. We made all efforts in order to minimize animal suffering.

For assay [2], the system named is strains of L. (L.) infantum chagasi. On the set-up: method as in PMID 23747751. As to conditions: cited from earlier work.
Assay [3] deals with intracellular amastigotes of L. (L.) infantum chagasi. As to conditions: cited from earlier work.
The test system of assay [4] is amastigotes of L. (L.) amazonensis. On the set-up: method as in PMID 18660990. The conditions noted are these: ref 43; read-out: IC50 against amastigotes; cited from earlier work.

For the substance Glucantime, in assay [1] (drugs (0.5–10 μM) added at 0 h, incubation 24 h, linear interpolation, read-out: EC50 (CI 95%)), the pEC50 was 5.15. The “reduction in the number of intracellular amastigotes” value in assay [1] (single 10 μM dose at 0 h, compared to untreated controls) turned out to be 70%. Besides, the pIC50 in assay [2] (Leishmania strains isolated from dogs) is 1.49 to 1.70; in assay [2] (human strains of L. (L.) infantum chagasi), 2.24 to 3.37; in assay [3] (ref 43, read-out: IC50 against replication of amastigotes), 3.46; in assay [3] (ref 44, read-out: IC50 against intracellular amastigotes), 2.85; in assay [3] (ref 45, read-out: IC50 against intracellular amastigotes) it was 4.51; in assay [4], 4.20.
